Experimental data published in patent publication US7858635B2 (priority 2005, dated 2010).
Read-outs that look alike come from different tables or passages of the source.

Columns and labels:
M1 muscarinic receptor = biological target: T1, M1 muscarinic receptor (Homo sapiens, UniProt P11229); assay: Functional mobilization of intracellular calcium (FLIPR, Fluo-3), M1-CHO cells; assay type: cell-based; conditions: for Emax: 100% efficacy is the maximum response obtained with the Carbachol control, read-out: M1 Efficacy
T1 construct: expressed in transfected cells; host or cells: CHO cells (M1-CHO, under zeocin and G418 selection)
T1 sequence (P11229 1-460): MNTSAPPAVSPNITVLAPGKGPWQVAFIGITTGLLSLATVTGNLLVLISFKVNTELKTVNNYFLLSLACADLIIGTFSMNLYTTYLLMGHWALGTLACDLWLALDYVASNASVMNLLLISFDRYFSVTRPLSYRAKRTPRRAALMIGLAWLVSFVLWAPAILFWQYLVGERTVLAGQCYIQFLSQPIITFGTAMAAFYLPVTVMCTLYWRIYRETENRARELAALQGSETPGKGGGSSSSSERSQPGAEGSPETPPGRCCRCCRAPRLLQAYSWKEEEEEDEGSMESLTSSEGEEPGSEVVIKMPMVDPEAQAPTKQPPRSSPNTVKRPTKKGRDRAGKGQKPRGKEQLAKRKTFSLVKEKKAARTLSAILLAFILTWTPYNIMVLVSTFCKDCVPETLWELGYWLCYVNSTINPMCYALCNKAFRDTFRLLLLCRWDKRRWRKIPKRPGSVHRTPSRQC
Outline: (§1)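 Fluo-3 read-out, ex 488/em 540 nm, 60 sec on FLIPR 3. For agonist mode, compound added directly; for inhibition, 15 min compound pre-incubation before carbachol at EC80 (added as a 3× solution), or co-application. Buffer pH 7.4 with 1 mM probenecid; DMSO 0.5%.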

M4 muscarinic receptor = biological target: T2, M4 muscarinic receptor (Homo sapiens, UniProt P08173); assay: Functional mobilization of intracellular calcium (FLIPR, Fluo-3), M4-CHO cells; assay type: cell-based; conditions: for Emax: 100% efficacy is the maximum response obtained with the Carbachol control, read-out: M4 Efficacy
T2 construct: expressed in transfected cells; host or cells: CHO cells (M4-CHO, under puromycin, zeocin and blasticidin selection)
T2 sequence (P08173 1-479): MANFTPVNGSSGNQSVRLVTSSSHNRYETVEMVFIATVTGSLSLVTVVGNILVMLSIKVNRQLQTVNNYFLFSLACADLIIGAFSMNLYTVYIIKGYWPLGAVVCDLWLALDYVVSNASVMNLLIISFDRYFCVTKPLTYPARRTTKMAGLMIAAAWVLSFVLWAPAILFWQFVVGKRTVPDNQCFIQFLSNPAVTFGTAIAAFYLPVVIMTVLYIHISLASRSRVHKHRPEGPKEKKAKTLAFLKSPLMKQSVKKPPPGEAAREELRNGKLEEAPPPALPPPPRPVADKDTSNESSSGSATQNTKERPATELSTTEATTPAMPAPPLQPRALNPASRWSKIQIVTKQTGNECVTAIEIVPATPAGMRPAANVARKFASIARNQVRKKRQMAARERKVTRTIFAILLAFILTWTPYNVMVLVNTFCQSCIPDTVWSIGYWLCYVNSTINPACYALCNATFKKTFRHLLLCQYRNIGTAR
Outline: as §1

[1] = compound nos. 1-454, M1-CHO cells, calcium mobilization
[2] = compound nos. 1-454, M4-CHO cells, calcium mobilization

Compound | M1 Activity (M1 muscarinic receptor; compound nos. 1-454) | Emax (M1 muscarinic receptor; compound nos. 1-454) [%] | M4 Activity (M4 muscarinic receptor; compound nos. 1-454) | Emax (M4 muscarinic receptor; compound nos. 1-454) [%] | M1 Activity (M1 muscarinic receptor; [1]) | M4 Activity (M4 muscarinic receptor; [2]) | Emax (M1 muscarinic receptor; compound nos. 455-509) [%] | M1 Activity (M1 muscarinic receptor; compounds 455-509) | Emax (M4 muscarinic receptor; compound nos. 455-509) [%] | M4 Activity (M4 muscarinic receptor; compounds 455-509)
CC(=O)NC1CC2(CCN(C[C@@H]3C[C@H]4C=C[C@H]3C4)CC2)c2ccccc21 (stereo partly shown) [compound 408] | +++ (activity was measured to be less than or equal to 0.7 μM) | 65 to 85 | +++ (activity was measured to be less than or equal to 0.1 μM) | 55 to 70 |  |  |  |  |  | 
CCCS(=O)(=O)N1CC2(CCN(C3CC4CCC(C3)N4C(=O)OCC)CC2)c2cc(F)ccc21 (stereo not shown) [compound 349] |  | > 85 |  | > 70 | ++ (activity was measured to be between 0.7 μM and 3.0 μM) | ++ (activity was measured to be between 0.1 μM and 4.0 μM) |  |  |  | 
COCCOC(=O)N1CCC(CN2CCC3(CC2)C[C@H](NC(C)=O)c2ccccc23)CC1 [compound 412] | ++ (activity was measured to be between 0.7 μM and 3.0 μM) | < 65 | + (activity was measured to be greater than or equal to 4.0 μM) | < 55 |  |  |  |  |  | 
O=C(C1CCC1)N1C2CCC1CC(N1CCC3(CC1)COc1ccc(F)cc13)C2 (stereo not shown) [compound 134] |  | > 85 |  | < 55 | +++ (activity was measured to be less than or equal to 0.7 μM) | ++ (activity was measured to be between 0.1 μM and 4.0 μM) |  |  |  | 
CN(C)C(=O)N1CC2(CCN(C3CCN(c4cncc(-c5ccccc5O)n4)CC3)CC2)c2ccccc21 [compound 481] |  |  |  |  |  |  | < 25 | +++ (activity was measured to be less than or equal to 2.0 μM) | < 25 | ++ (activity was measured to be between 2.0 μM and 5.0 μM)
CCOC(=O)N1CCC(N2CCC3(CC2)CN(C(C)=O)c2ccc(CC)cc23)CC1 [compound 137] |  | > 85 |  | > 70 | +++ (activity was measured to be less than or equal to 0.7 μM) | + (activity was measured to be greater than or equal to 4.0 μM) |  |  |  | 
CCOC(=O)N1CCC(N2CCC3(CC2)CN(C(=O)OCCOC)c2ccc(F)cc23)CC1 [compound 38] |  | > 85 |  | > 70 | +++ (activity was measured to be less than or equal to 0.7 μM) | +++ (activity was measured to be less than or equal to 0.1 μM) |  |  |  | 
Cc1cncc(N2CCC(N3CCC4(CCN(C(=O)N(C)C)c5ccccc54)CC3)CC2)n1 [compound 494] |  |  |  |  |  |  | > 100 | +++ (activity was measured to be less than or equal to 2.0 μM) | 25 to 100 | ++ (activity was measured to be between 2.0 μM and 5.0 μM)
CCOC(=O)N1CCC(CN2CCC3(CC2)CN(C(C)=O)c2ccc(C)cc23)CC1 [compound 46] |  | > 85 |  | 55 to 70 | +++ (activity was measured to be less than or equal to 0.7 μM) | +++ (activity was measured to be less than or equal to 0.1 μM) |  |  |  | 
COc1ccc(N2CCC(N3CCC4(CC3)CN(C(=O)N(C)C)c3ccc(F)cc34)CC2)nn1 [compound 488] |  |  |  |  |  |  | > 100 | + (activity was measured to be greater than or equal to 5.0 μM) | 25 to 100 | ++ (activity was measured to be between 2.0 μM and 5.0 μM)
CCOC(=O)N1CCC(N2CCC3(CC2)C(=O)N(C)c2ccccc23)CC1 [compound 31] |  | > 85 |  | 55 to 70 | +++ (activity was measured to be less than or equal to 0.7 μM) | +++ (activity was measured to be less than or equal to 0.1 μM) |  |  |  | 
CCOC(=O)N1C2CCC1CC(N1CCC3(CC1)COc1ccc(F)cc13)C2 (stereo not shown) [compound 42] |  | > 85 |  | > 70 | +++ (activity was measured to be less than or equal to 0.7 μM) | ++ (activity was measured to be between 0.1 μM and 4.0 μM) |  |  |  | 
CC(=O)N1CC2(CCN(CC3CCN(C(=O)OC(C)C)CC3)CC2)c2cc(C)ccc21 [compound 404] | ++ (activity was measured to be between 0.7 μM and 3.0 μM) | < 65 | + (activity was measured to be greater than or equal to 4.0 μM) | < 55 |  |  |  |  |  | 
CCOC(=O)N1CCC(N2CCC3(CC2)CN(C(C)=O)c2ccc(-c4ccccc4OC)cc23)CC1 [compound 150] |  | 65 to 85 |  | > 70 | +++ (activity was measured to be less than or equal to 0.7 μM) | + (activity was measured to be greater than or equal to 4.0 μM) |  |  |  | 
CCCOC(=O)N1C2CCC1CC(N1CCC3(CC1)CN(S(C)(=O)=O)c1ccc(F)cc13)C2 (stereo not shown) [compound 294] |  | > 85 |  | 55 to 70 | ++ (activity was measured to be between 0.7 μM and 3.0 μM) | ++ (activity was measured to be between 0.1 μM and 4.0 μM) |  |  |  | 
O=C(C1CC1)N1CC2(CCN(C3CC4CCC(C3)N4C(=O)O[C@@H]3CCOC3)CC2)c2cc(F)ccc21 (stereo partly shown) [compound 87] |  | 65 to 85 |  | < 55 | +++ (activity was measured to be less than or equal to 0.7 μM) | + (activity was measured to be greater than or equal to 4.0 μM) |  |  |  | 
CCOC(=O)N1CCC(N2CCC3(CC2)CN(CC(C)=O)c2ccc(F)cc23)CC1 [compound 249] |  | 65 to 85 |  | 55 to 70 | + (activity was measured to be greater than or equal to 3.0 μM) | + (activity was measured to be greater than or equal to 4.0 μM) |  |  |  | 
CN(C)C(=O)N1CC2(CCN(C3CC4CCC(C3)N4c3cnccn3)CC2)c2ccccc21 (stereo not shown) [compound 500] |  |  |  |  |  |  | > 100 | +++ (activity was measured to be less than or equal to 2.0 μM) | 25 to 100 | ++ (activity was measured to be between 2.0 μM and 5.0 μM)
Clc1ccc2c(c1)C1(CCN(C3CC4CCC3C4)CC1)CN2 (stereo not shown) [compound 224] |  | 65 to 85 |  | < 55 | + (activity was measured to be greater than or equal to 3.0 μM) | + (activity was measured to be greater than or equal to 4.0 μM) |  |  |  | 
Fc1ccc2c(c1)C1(CCN(C3CCOCC3)CC1)CN2 [compound 299] |  | 65 to 85 |  | 55 to 70 | + (activity was measured to be greater than or equal to 3.0 μM) | + (activity was measured to be greater than or equal to 4.0 μM) |  |  |  | 
Cc1ccc2c(c1)C1(CCN(CC3CC4C=CC3C4)CC1)CN2 (stereo not shown) [compound 3] |  | 65 to 85 |  | 55 to 70 | +++ (activity was measured to be less than or equal to 0.7 μM) | ++ (activity was measured to be between 0.1 μM and 4.0 μM) |  |  |  | 
CCOC(=O)N1C2CCC1CC(N1CCC3(CC1)CN(C(C)=O)c1ccc(F)cc13)C2 (stereo not shown) [compound 371] |  | 65 to 85 |  | > 70 | +++ (activity was measured to be less than or equal to 0.7 μM) | + (activity was measured to be greater than or equal to 4.0 μM) |  |  |  | 
